Measurements from US20240349733A1 (priority 2023, published 2024).
“Also recorded” adds a separate entry of the source. Where two headings read alike, the source gives them in different places. Ends that are not written are not given here.

How the values were obtained:
CLas BamA protein = CLas BamA protein (Candidatus Liberibacter asiaticus, UniProt Q32TE9); format: binding; details: for Kd: read-out: KD, affinity constant
[1] = target: CLas BamA protein (Candidatus Liberibacter asiaticus); experiment: BLI (BLItz), […], global fit, triplicate
R. grahamii [2] = format: binding, Rhizobium grahamii
[3] = tested on: cells in healthy citrus tree extracts; format: binding
E. coli = experiment: FITC-labeled peptide binding assay, fluorescence microscopy; parameters: species or system Escherichia coli
[4] = tested on: putative CLas cells in bacterial extracts from HLB-affected trees; format: binding, Candidatus Liberibacter asiaticus
R. galegae [5] = experiment: FITC-labeled peptide binding assay, fluorescence microscopy; parameters: species or system Rhizobium galegae
L. crescens [6] = format: binding, Liberibacter crescens
CLas [7] = format: cell-based, Candidatus Liberibacter asiaticus; details: 72 hours; 25, 50, 100 μg/ml
CLas [8] = format: in vivo, Candidatus Liberibacter asiaticus; details: for Reduction in CLas titers compared to SOD2* or SOD12 alone: roots of 4 months old composite plants stably expressing the STAMP
L. crescens [9] = tested on: L. crescens
R. grahamii [10] = format: cell-based, Rhizobium grahamii; details: 10, 25, 50, 100 μg/ml
R. galegae [11] = format: cell-based, Rhizobium galegae; details: N- or C-terminus orientation
[12] = BLI, pH 6.5 Tris buffer, mean ± SD
[13] = binders 16 μM, unrelated bacterium
[14] = binders 16 μM, bacterial extracts from HLB-affected citrus trees
[15] = especially at lower dosages (50 μg/ml)

Molecule: NC(N)=NC(=O)CC(Nc1nc(N=C(N)N)nc(NC2CCC(NC(=O)Cn3nnc(-c4ccc(F)cc4)n3)CC2)n1)C1CC1 (centres unmarked) [MRL-494, reference compound]
- Kd, rate of dissociation (CLas BamA protein; [12]): 0.0813 ± 1 s⁻¹
- Kd (CLas BamA protein; [12]): 6970 nM

Molecule: ACT56869.1_241-255 (peptide)
- Kd [1]: 270 nM
- koff [1]: 0.0117 s⁻¹
- kon [1]: 49600 M⁻¹ s⁻¹

Molecule: ACT56973.1_80-96 (peptide)
- Kd [1]: 248 nM
- koff [1]: 0.211 s⁻¹
- kon [1]: 852000 M⁻¹ s⁻¹

Molecule: ACT57020.1_94-118 (peptide)
- Kd [1]: 209 nM
- koff [1]: 0.0032 s⁻¹
- kon [1]: 15900 M⁻¹ s⁻¹

Molecule: DLHPQFQNLLKKSQN [ACT56869.1_241-255]
- Ka, rate of association (CLas BamA protein; [12]): 49610 ± 1 M⁻¹ s⁻¹
- Kd, rate of dissociation (CLas BamA protein; [12]): 0.01167 ± 1 s⁻¹
- Kd (CLas BamA protein; [12]): 270 nM

Molecule: MGINGFKFLSDIHHFCS [compound 22602, MGINGFKFLSDIHHFCS]
- Binding of FITC-labeled binder to R. grahamii (R. grahamii [2]): consistent binding; also recorded: bound
- Binding of FITC-labeled binder to cells in healthy citrus tree extracts [3]: not
- Binding of FITC-labeled binder to E. coli (E. coli): not to E. coli
- Binding of FITC-labeled binder to CLas cells [4]: consistent binding; also recorded: bound
- Binding of FITC-labeled binder to R. galegae (R. galegae [5]): consistent binding; also recorded: bound
- Binding of FITC-labeled binder to L. crescens (L. crescens [6]): consistent binding; also recorded: bound

Molecule: QSFYYVSQKKKWFPVKF [ACT56973.1_80-96]
- Ka, rate of association (CLas BamA protein; [12]): 852433 ± 1 M⁻¹ s⁻¹
- Kd, rate of dissociation (CLas BamA protein; [12]): 0.2111 ± 1 s⁻¹
- Kd (CLas BamA protein; [12]): 248 nM

Molecule: RICESASYRFKGICVSRSNCANVCKNEGFPGGRCRGFRRRCLCYKHCG (cysteines drawn unpaired) [SOD12]
- Anti-CLas activity (relative CLas titers by qPCR) (CLas [7]): ineffective or moderately effective
- CLas titers compared to empty vector controls (CLas [8]; in vivo): significantly lowered
- Mortality of L. crescens at lower dosage (L. crescens [9]): ineffective
- Mortality rate of L. crescens (L. crescens [9]): 65-85%

Molecule: SRNSSIALGLRRAYAVFNYFVARGI [compound 57020]
- Ka, rate of association (CLas BamA protein; pH 6.5): 15857 ± 1 M⁻¹ s⁻¹
- Kd, rate of dissociation (CLas BamA protein; pH 6.5): 0.0032 ± 1 s⁻¹
- Kd (CLas BamA protein; pH 6.5): 209 nM
- Binding of FITC-labeled binder to R. grahamii (R. grahamii [2]): consistent binding; also recorded: bound
- Binding of FITC-labeled binder to cells in healthy citrus tree extracts [3]: not
- Binding of FITC-labeled binder to E. coli (E. coli): not to E. coli
- Binding of FITC-labeled binder to CLas cells [4]: consistent binding; also recorded: bound
- In vitro growth inhibition of R. grahamii, efficacy compared to SOD12 alone (R. grahamii [10]): significantly greater efficacy
- Binding of FITC-labeled binder to R. galegae (R. galegae [5]): consistent binding; also recorded: bound
- Binding of FITC-labeled binder to L. crescens (L. crescens [6]): consistent binding; also recorded: bound

Molecule: WHVTFY [#11]
- Binding of FITC-labeled binder to R. grahamii (R. grahamii [2]; binders 16 μM): bound
- Binding of FITC-labeled binder to cells in healthy citrus tree extracts ([3]; binders 16 μM): not
- Binding of FITC-labeled binder to E. coli (E. coli; [13]): not to E. coli
- Binding of FITC-labeled binder to CLas cells [4, 14]: bound
- Binding of FITC-labeled binder to R. galegae (R. galegae [5]; binders 16 μM): bound
- Binding of FITC-labeled binder to L. crescens (L. crescens [6]; binders 16 μM): bound

Molecule: WHVTYF [#12]
- Binding of FITC-labeled binder to R. grahamii (R. grahamii [2]; binders 16 μM): bound
- Binding of FITC-labeled binder to cells in healthy citrus tree extracts ([3]; binders 16 μM): not
- Binding of FITC-labeled binder to E. coli (E. coli; [13]): not to E. coli
- Binding of FITC-labeled binder to CLas cells [4, 14]: bound
- Binding of FITC-labeled binder to R. galegae (R. galegae [5]; binders 16 μM): bound
- Binding of FITC-labeled binder to L. crescens (L. crescens [6]; binders 16 μM): bound

B1: SOD12-22602: STAMP, SEQ ID NO: 22; SOD12, GGSGGS linker, binder 22602 (peptide)
chain: RICESASYRFKGICVSRSNCANVCKNEGFPGGRCRGFRRRCLCYKHCGGGSGGSMGINGFKFLSDIHHFCS
- Efficacy in R. galegae compared with 22602-SOD12 and SOD12-57020 (binder orientation) (R. galegae [11]): lower efficacy

B2: 57020-SOD12: STAMP, SEQ ID NO: 23; binder 57020, GGSGGS linker, SOD12 (peptide)
chain: SRNSSIALGLRRAYAVFNYFVARGIGGSGGSRICESASYRFKGICVSRSNCANVCKNEGFPGGRCRGFRRRCLCYKHCG
- In vitro growth inhibition of R. grahamii, efficacy compared to SOD12 alone (R. grahamii [10]; [15]): significantly greater efficacy
- Efficacy in R. galegae compared with 22602-SOD12 and SOD12-57020 (binder orientation) (R. galegae [11]): lower efficacy

B3: SOD12-57020: STAMP, SEQ ID NO: 24; SOD12, GGSGGS linker, binder 57020 (peptide)
chain: RICESASYRFKGICVSRSNCANVCKNEGFPGGRCRGFRRRCLCYKHCGGGSGGSSRNSSIALGLRRAYAVFNYFVARGI
- In vitro growth inhibition of R. grahamii, efficacy compared to SOD12 alone (R. grahamii [10]; [15]): significantly greater efficacy

B4: 22602-SoD2*: STAMP, SEQ ID NO: 25; binder 22602, GGSGGS linker, SOD2* (peptide)
chain: MGINGFKFLSDIHHFCSGGSGGSGIFSSRKCKTPSKTFKGICTRDSNCDTSCRYEGYPAGDCKGIRRRCLCCTHT
- Reduction in CLas titers compared to SOD2* or SOD12 alone (CLas [8]): even greater reduction in CLas titers

B5: 57020-SoD2*: STAMP, SEQ ID NO: 27; binder 57020, GGSGGS linker, SOD2* (peptide)
chain: SRNSSIALGLRRAYAVFNYFVARGIGGSGGSGIFSSRKCKTPSKTFKGICTRDSNCDTSCRYEGYPAGDCKGIRRRCLCCTHT
- Reduction in CLas titers compared to SOD2* or SOD12 alone (CLas [8]): even greater reduction in CLas titers

B6: 22602-SOD12: STAMP, SEQ ID NO: 21; binder 22602, GGSGGS linker, SOD12 (peptide)
chain: MGINGFKFLSDIHHFCSGGSGGSRICESASYRFKGICVSRSNCANVCKNEGFPGGRCRGFRRRCLCYKHCG
- Reduction in CLas titers compared to SOD2* or SOD12 alone (CLas [8]): even greater reduction in CLas titers
